Measurements reported in the NIST ThermoML archive (doi:10.1016/j.jct.2006.10.017).

Experiments:
[1] = refractive index (Na D-line) (dimensionless); xn = mol fraction of the nth substance listed; conditions: 101 kPa, Liquid
[2] = xn = mol fraction of the nth substance listed; conditions: 101 kPa, Liquid

CCCCn1cc[n+](C)c1.COS(=O)(=O)[O-] [1-butyl-3-methylimidazolium methyl sulfate] + CCO
Conditions | mass density, 293.15 K [kg/m3] | mass density, 298.15 K [kg/m3] | mass density, 303.15 K [kg/m3] | refractive index, 293.15 K | refractive index, 298.15 K | refractive index, 303.15 K | speed of sound, 293.15 K [m/s] | speed of sound, 298.15 K [m/s] | speed of sound, 303.15 K [m/s]
[1], x1 = 0.0501 | – | – | – | 1.38149 | 1.3797 | 1.37885 | – | – | –
[1], x1 = 0.1015 | – | – | – | 1.39827 | 1.39667 | 1.39541 | – | – | –
[1], x1 = 0.1961 | – | – | – | 1.42043 | 1.41884 | 1.41656 | – | – | –
[1], x1 = 0.299 | – | – | – | 1.43625 | 1.43478 | 1.43335 | – | – | –
[1], x1 = 0.3914 | – | – | – | 1.44713 | 1.4456 | 1.44408 | – | – | –
[1], x1 = 0.5025 | – | – | – | 1.45714 | 1.45586 | 1.45509 | – | – | –
[1], x1 = 0.6073 | – | – | – | 1.46429 | 1.46284 | 1.46136 | – | – | –
[1], x1 = 0.6982 | – | – | – | 1.46926 | 1.4678 | 1.46639 | – | – | –
[1], x1 = 0.8002 | – | – | – | 1.47391 | 1.47249 | 1.47111 | – | – | –
[1], x1 = 0.8992 | – | – | – | 1.47757 | 1.47623 | 1.47485 | – | – | –
[1], x1 = 0.9498 | – | – | – | 1.47901 | 1.47766 | 1.47622 | – | – | –
[1], x1 = 1 | – | – | – | 1.48077 | 1.47942 | 1.47806 | – | – | –
[2], x1 = 0.0501 | 860.2 | 856.4 | 852.2 | – | – | – | 1218 | 1203 | 1189
[2], x1 = 0.1015 | 916.9 | 913 | 909 | – | – | – | 1277 | 1262 | 1248
[2], x1 = 0.1961 | 993.7 | 990 | 986.2 | – | – | – | 1358 | 1343 | 1324
[2], x1 = 0.299 | 1052.2 | 1048.6 | 1044.9 | – | – | – | 1425 | 1412 | 1392
[2], x1 = 0.3914 | 1091.3 | 1087.8 | 1084.1 | – | – | – | 1479 | 1466 | 1446
[2], x1 = 0.5025 | 1127.3 | 1123.7 | 1120.1 | – | – | – | 1538 | 1525 | 1508
[2], x1 = 0.6073 | 1153.5 | 1150 | 1146.5 | – | – | – | 1576 | 1563 | 1553
[2], x1 = 0.6982 | 1172 | 1168.5 | 1165 | – | – | – | 1598 | 1584 | 1574
[2], x1 = 0.8002 | 1189.2 | 1185.6 | 1182.2 | – | – | – | 1626 | 1612 | 1602
[2], x1 = 0.8992 | 1203.1 | 1199.7 | 1196.3 | – | – | – | 1650 | 1636 | 1626
[2], x1 = 0.9498 | 1209.5 | 1206.1 | 1202.7 | – | – | – | 1659 | 1645 | 1633
[2], x1 = 1 | 1215.6 | 1212.2 | 1208.8 | – | – | – | 1671 | 1658 | 1645

CCO [ethanol] + CCCCn1cc[n+](C)c1.F[P-](F)(F)(F)(F)F
x2 = 0
Conditions | mass density, 293.15 K [kg/m3] | mass density, 298.15 K [kg/m3] | mass density, 303.15 K [kg/m3] | refractive index, 293.15 K | refractive index, 298.15 K | refractive index, 303.15 K | speed of sound, 293.15 K [m/s] | speed of sound, 298.15 K [m/s] | speed of sound, 303.15 K [m/s]
[1] | – | – | – | 1.36138 | 1.35929 | 1.35725 | – | – | –
[2] | 789.3 | 785.1 | 780.7 | – | – | – | 1160 | 1143 | 1127

COS(=O)(=O)[O-].Cn1cc[n+](C)c1 [1,3-dimethylimidazolium methylsulfate] + CCO
Conditions | mass density, 293.15 K [kg/m3] | mass density, 298.15 K [kg/m3] | mass density, 303.15 K [kg/m3] | refractive index, 293.15 K | refractive index, 298.15 K | refractive index, 303.15 K | speed of sound, 293.15 K [m/s] | speed of sound, 298.15 K [m/s] | speed of sound, 303.15 K [m/s]
[1], x1 = 0.0738 | – | – | – | 1.3881 | 1.38734 | 1.38689 | – | – | –
[1], x1 = 0.1356 | – | – | – | 1.40426 | 1.40398 | 1.40322 | – | – | –
[1], x1 = 0.2275 | – | – | – | 1.42272 | 1.42173 | 1.42109 | – | – | –
[1], x1 = 0.3317 | – | – | – | 1.43794 | 1.43648 | 1.4356 | – | – | –
[1], x1 = 0.429 | – | – | – | 1.44915 | 1.44761 | 1.44677 | – | – | –
[1], x1 = 0.5395 | – | – | – | 1.45944 | 1.45819 | 1.45699 | – | – | –
[1], x1 = 0.6331 | – | – | – | 1.4665 | 1.4651 | 1.46385 | – | – | –
[1], x1 = 0.7308 | – | – | – | 1.472 | 1.47068 | 1.4694 | – | – | –
[1], x1 = 0.8142 | – | – | – | 1.47624 | 1.47489 | 1.47353 | – | – | –
[1], x1 = 0.9081 | – | – | – | 1.48029 | 1.47895 | 1.47763 | – | – | –
[1], x1 = 0.9512 | – | – | – | 1.48211 | 1.48079 | 1.47949 | – | – | –
[1], x1 = 1 | – | – | – | 1.48392 | 1.4827 | 1.48129 | – | – | –
[2], x1 = 0.0738 | 891.5 | 887.4 | 883.3 | – | – | – | 1241 | 1226 | 1211
[2], x1 = 0.1356 | 959.7 | 955.7 | 951.7 | – | – | – | 1305 | 1291 | 1277
[2], x1 = 0.2275 | 1040.6 | 1036.7 | 1032.8 | – | – | – | 1396 | 1383 | 1370
[2], x1 = 0.3317 | 1111.6 | 1107.8 | 1104 | – | – | – | 1490 | 1477 | 1465
[2], x1 = 0.429 | 1163.9 | 1160.2 | 1156.5 | – | – | – | 1568 | 1555 | 1542
[2], x1 = 0.5395 | 1211.1 | 1207.5 | 1203.8 | – | – | – | 1642 | 1629 | 1617
[2], x1 = 0.6331 | 1243.6 | 1239.9 | 1236.3 | – | – | – | 1693 | 1681 | 1668
[2], x1 = 0.7308 | 1272 | 1268.4 | 1264.8 | – | – | – | 1737 | 1725 | 1713
[2], x1 = 0.8142 | 1293 | 1289.3 | 1285.7 | – | – | – | 1769 | 1757 | 1745
[2], x1 = 0.9081 | 1313.3 | 1309.7 | 1306.1 | – | – | – | 1800 | 1787 | 1775
[2], x1 = 0.9512 | 1321.7 | 1318.1 | 1314.5 | – | – | – | 1812 | 1800 | 1788
[2], x1 = 1 | 1330.9 | 1327.2 | 1323.7 | – | – | – | 1826 | 1813 | 1801
